These results are taken from ChEMBL document CHEMBL5113491, “Discovery of N-benzylarylamide derivatives as novel tubulin polymerization inhibitors capable of activating the Hippo pathway” (Eur J Med Chem, 2022).

Calls of active or inactive are those of the source. The rule behind the calls is not given here.

Assay [1] relates to MGC-803. In words: Antiproliferative activity against human MGC-803 cells assessed as inhibition of cell growth measured upto 72 hrs by MTT assay. The following applies: dose 15-45 µmol/L, DDE = dose-dependent effect. Type of assay: functional, cell-based. (In general: Formazan colour is commonly taken as a measure of viable cells.)
Assay [2] deals with MGC-803. In words: Antiproliferative activity against human MGC-803 cells assessed as inhibition of cell growth at 15 to 45 […] by MTT assay. The assay is classed as functional, cell-based. The note with it: dose 15-45 µmol/L, time <= 72.0 hrs, TDE = time-dependent effect.
Assay [3] deals with MGC-803. Put plainly: Induction of G2/M phase cell cycle arrest in human MGC-803 cells assessed as decrease in p-cdc2 (T161) expression at 15 to 45 nmol/L measured after 48 hrs by Western blot analysis. Type of assay: functional, cell-based. The following applies: dose 15-45 nmol/L. For orientation: A western blot detects proteins with antibodies after separation by electrophoresis.

In assay [4] the test system is SGC-7901. In words: Activation of LATS in human SGC-7901 cells assessed as increase in LATS phosphorylation measured after 48 hrs by Western blot analysis. Type of assay: cell-based. The note with it: filed as activator, dose 15-45 nmol/L, DDE = dose-dependent effect.
The test system of assay [5] is MGC-803. In words: Induction of G2/M phase cell cycle arrest in human MGC-803 cells assessed as decrease in cyclin A2 expression at 15 to 45 nmol/L measured after 48 hrs by Western blot analysis. The note with it: dose 15-45 nmol/L. Type of assay: functional, cell-based.
Assay [6] has as its system SGC-7901. In words: Antiproliferative activity against human SGC-7901 cells assessed as inhibition of cell growth measured after 48 hrs by MTT assay. The note with it: SGC-7901, 48 h. Type of assay: functional, cell-based.
Assay [7] concerns MGC-803. Put plainly: Downregulation of Axl protein expression in human MGC-803 cells at 15 to 45 nmol/L measured after 48 hrs by Western blot analysis. The assay is classed as functional, cell-based. The note with it: dose 15-45 nmol/L.

Turning to `C/C=C/C(=O)N(Cc1ccc(OC)c(O)c1)c1cc(OC)c(OC)c(OC)c1`, the Activity result in the assay on MGC-803 [1] is “Dde”; with MGC-803 [2], “Tde”; in the assay with SGC-7901 [4], “Dde”. Besides, the result in the assay on MGC-803 [3], in the assay on MGC-803 [5] and with MGC-803 [7] was Active. The IC50 (commonly the concentration at which inhibition is half-maximal) with SGC-7901 [6] came out at 25 nM.
